The values that follow are results of earlier work, collected in US10675364B2, “Rhodol fluorophores for near-infrared imaging” (The Board of Trustees of the Leland Stanford Junior …, priority 2015, dated 2020).

One may read the pKa as the pH at which an ionisable group is half protonated.

The conditions of the data set: highly sensitive to pH in the physiological range.

With `O=C1OC2(c3ccc(O)cc3Oc3cc(O)ccc32)c2ccccc21` [fluorescein], the pKa is listed as 6.3.
